# Experimental data: patent US12702691B2, “Extract of an herbal composition as antimicrobial and/or antibiofilm agent” (ALPHANOSOS S.A.S., priority 2016, dated 2026)
# How the values were obtained:
# B-A17 = assay: Planktonic growth with extract and antibiotic relative to growth without both (Example 14); type: cell-based
# Procedure: (§1) Starting from the herbal composition, the corresponding water extracts (or processed samples) was prepared according to the previously described Method B using 2.06 g of the above herbal composition with 40 mL water with 100 g/L sucrose for water extraction and including the decantation step before filtration. In an independent water extract preparation without sucrose, it has been measured that 2.06 g/40 mL of herbal composition corresponds to 14.5 g/L as deduced from the weight of the lyophilized dry herbal extract.
# (§2) In Example 14 we calculate the growth of the bacteria in presence of antibiotic and/or herbal mix relative to the growth in the absence of both antibiotic and herbal mix extract.
# B-A21 = assay: as above; type: cell-based
# Procedure: as §1, §2
# [1] = M[20C]-576 0 μg/mL, antibiotic 3.91 μg/mL
# [2] = M[20C]-576 0 μg/mL, antibiotic 7.81 μg/mL
# [3] = M[20C]-576 0 μg/mL, antibiotic 15.63 μg/mL
# [4] = M[20C]-576 0 μg/mL, antibiotic 31.25 μg/mL
# [5] = M[20C]-576 0 μg/mL, antibiotic 62.50 μg/mL
# [6] = M[20C]-576 0 μg/mL, antibiotic 125 μg/mL
# [7] = M[20C]-576 0 μg/mL, antibiotic 250 μg/mL
# [8] = M[20C]-576 0 μg/mL, antibiotic 500 μg/mL
# [9] = M[20C]-576 0 μg/mL, antibiotic 1000 μg/mL
# [10] = M[20C]-576 0 μg/mL, antibiotic 2000 μg/mL
# [11] = M[20C]-576 0 μg/mL, antibiotic 4000 μg/mL
# [12] = M[20C]-576 90.6 μg/mL, antibiotic 3.91 μg/mL
# [13] = M[20C]-576 90.6 μg/mL, antibiotic 7.81 μg/mL
# [14] = M[20C]-576 90.6 μg/mL, antibiotic 15.63 μg/mL
# [15] = M[20C]-576 90.6 μg/mL, antibiotic 31.25 μg/mL
# [16] = M[20C]-576 90.6 μg/mL, antibiotic 62.50 μg/mL
# [17] = M[20C]-576 90.6 μg/mL, antibiotic 125 μg/mL
# [18] = M[20C]-576 90.6 μg/mL, antibiotic 250 μg/mL
# [19] = M[20C]-576 90.6 μg/mL, antibiotic 500 μg/mL
# [20] = M[20C]-576 90.6 μg/mL, antibiotic 1000 μg/mL
# [21] = M[20C]-576 90.6 μg/mL, antibiotic 2000 μg/mL
# [22] = M[20C]-576 90.6 μg/mL, antibiotic 4000 μg/mL
# [23] = M[20C]-576 181.3 μg/mL, antibiotic 3.91 μg/mL
# [24] = M[20C]-576 181.3 μg/mL, antibiotic 7.81 μg/mL
# [25] = M[20C]-576 181.3 μg/mL, antibiotic 15.63 μg/mL
# [26] = M[20C]-576 181.3 μg/mL, antibiotic 31.25 μg/mL
# [27] = M[20C]-576 181.3 μg/mL, antibiotic 62.50 μg/mL
# [28] = M[20C]-576 181.3 μg/mL, antibiotic 125 μg/mL
# [29] = M[20C]-576 181.3 μg/mL, antibiotic 250 μg/mL
# [30] = M[20C]-576 181.3 μg/mL, antibiotic 500 μg/mL
# [31] = M[20C]-576 181.3 μg/mL, antibiotic 1000 μg/mL
# [32] = M[20C]-576 181.3 μg/mL, antibiotic 2000 μg/mL
# [33] = M[20C]-576 181.3 μg/mL, antibiotic 4000 μg/mL
structure (smiles),measurement,setting,value
CN[C@H](CC(C)C)C(=O)N[C@H]1C(=O)N[C@@H](CC(N)=O)C(=O)N[C@H]2C(=O)N[C@H]3C(=O)N[C@H](C(=O)N[C@H](C(=O)O)c4cc(O)cc(O)c4-c4cc3ccc4O)[C@H](O)c3ccc(c(Cl)c3)Oc3cc2cc(c3O[C@@H]2O[C@H](CO)[C@@H](O)[C@H](O)[C@H]2O[C@H]2C[C@](C)(N)[C@H](O)[C@H](C)O2)Oc2ccc(cc2Cl)[C@H]1O [Vancomycin],planktonic growth relative to the growth in the absence of both extract and antibiotic,B-A17; [1],135%
same,planktonic growth relative to the growth in the absence of both extract and antibiotic,B-A17; [2],118%
same,planktonic growth relative to the growth in the absence of both extract and antibiotic,B-A17; [3],114%
same,planktonic growth relative to the growth in the absence of both extract and antibiotic,B-A17; [4],117%
same,planktonic growth relative to the growth in the absence of both extract and antibiotic,B-A17; [5],115%
same,planktonic growth relative to the growth in the absence of both extract and antibiotic,B-A17; [6],116%
same,planktonic growth relative to the growth in the absence of both extract and antibiotic,B-A17; [7],118%
same,planktonic growth relative to the growth in the absence of both extract and antibiotic,B-A17; [8],128%
same,planktonic growth relative to the growth in the absence of both extract and antibiotic,B-A17; [9],117%
same,planktonic growth relative to the growth in the absence of both extract and antibiotic,B-A17; [10],0%
same,planktonic growth relative to the growth in the absence of both extract and antibiotic,B-A17; [11],0%
same,planktonic growth relative to the growth in the absence of both extract and antibiotic,B-A17; [12],65%
same,planktonic growth relative to the growth in the absence of both extract and antibiotic,B-A17; [13],66%
same,planktonic growth relative to the growth in the absence of both extract and antibiotic,B-A17; [14],65%
same,planktonic growth relative to the growth in the absence of both extract and antibiotic,B-A17; [15],74%
same,planktonic growth relative to the growth in the absence of both extract and antibiotic,B-A17; [16],70%
same,planktonic growth relative to the growth in the absence of both extract and antibiotic,B-A17; [17],67%
same,planktonic growth relative to the growth in the absence of both extract and antibiotic,B-A17; [18],66%
same,planktonic growth relative to the growth in the absence of both extract and antibiotic,B-A17; [19],63%
same,planktonic growth relative to the growth in the absence of both extract and antibiotic,B-A17; [20],0%
same,planktonic growth relative to the growth in the absence of both extract and antibiotic,B-A17; [21],0%
same,planktonic growth relative to the growth in the absence of both extract and antibiotic,B-A17; [22],0%
same,planktonic growth relative to the growth in the absence of both extract and antibiotic,B-A17; [23],40%
same,planktonic growth relative to the growth in the absence of both extract and antibiotic,B-A17; [24],41%
same,planktonic growth relative to the growth in the absence of both extract and antibiotic,B-A17; [25],53%
same,planktonic growth relative to the growth in the absence of both extract and antibiotic,B-A17; [26],55%
same,planktonic growth relative to the growth in the absence of both extract and antibiotic,B-A17; [27],55%
same,planktonic growth relative to the growth in the absence of both extract and antibiotic,B-A17; [28],54%
same,planktonic growth relative to the growth in the absence of both extract and antibiotic,B-A17; [29],46%
same,planktonic growth relative to the growth in the absence of both extract and antibiotic,B-A17; [30],47%
same,planktonic growth relative to the growth in the absence of both extract and antibiotic,B-A17; [31],−3%
same,planktonic growth relative to the growth in the absence of both extract and antibiotic,B-A17; [32],−3%
same,planktonic growth relative to the growth in the absence of both extract and antibiotic,B-A17; [33],−2%
same,planktonic growth relative to the growth in the absence of both extract and antibiotic,B-A21; [1],118%
same,planktonic growth relative to the growth in the absence of both extract and antibiotic,B-A21; [2],117%
same,planktonic growth relative to the growth in the absence of both extract and antibiotic,B-A21; [3],113%
same,planktonic growth relative to the growth in the absence of both extract and antibiotic,B-A21; [4],117%
same,planktonic growth relative to the growth in the absence of both extract and antibiotic,B-A21; [5],110%
same,planktonic growth relative to the growth in the absence of both extract and antibiotic,B-A21; [6],102%
same,planktonic growth relative to the growth in the absence of both extract and antibiotic,B-A21; [7],102%
same,planktonic growth relative to the growth in the absence of both extract and antibiotic,B-A21; [8],102%
same,planktonic growth relative to the growth in the absence of both extract and antibiotic,B-A21; [9],0%
same,planktonic growth relative to the growth in the absence of both extract and antibiotic,B-A21; [10],0%
same,planktonic growth relative to the growth in the absence of both extract and antibiotic,B-A21; [11],0%
same,planktonic growth relative to the growth in the absence of both extract and antibiotic,B-A21; [12],102%
same,planktonic growth relative to the growth in the absence of both extract and antibiotic,B-A21; [13],82%
same,planktonic growth relative to the growth in the absence of both extract and antibiotic,B-A21; [14],88%
same,planktonic growth relative to the growth in the absence of both extract and antibiotic,B-A21; [15],77%
same,planktonic growth relative to the growth in the absence of both extract and antibiotic,B-A21; [16],76%
same,planktonic growth relative to the growth in the absence of both extract and antibiotic,B-A21; [17],77%
same,planktonic growth relative to the growth in the absence of both extract and antibiotic,B-A21; [18],74%
same,planktonic growth relative to the growth in the absence of both extract and antibiotic,B-A21; [19],67%
same,planktonic growth relative to the growth in the absence of both extract and antibiotic,B-A21; [20],0%
same,planktonic growth relative to the growth in the absence of both extract and antibiotic,B-A21; [21],0%
same,planktonic growth relative to the growth in the absence of both extract and antibiotic,B-A21; [22],0%
same,planktonic growth relative to the growth in the absence of both extract and antibiotic,B-A21; [23],48%
same,planktonic growth relative to the growth in the absence of both extract and antibiotic,B-A21; [24],63%
same,planktonic growth relative to the growth in the absence of both extract and antibiotic,B-A21; [25],57%
same,planktonic growth relative to the growth in the absence of both extract and antibiotic,B-A21; [26],60%
same,planktonic growth relative to the growth in the absence of both extract and antibiotic,B-A21; [27],57%
same,planktonic growth relative to the growth in the absence of both extract and antibiotic,B-A21; [28],41%
same,planktonic growth relative to the growth in the absence of both extract and antibiotic,B-A21; [29],57%
same,planktonic growth relative to the growth in the absence of both extract and antibiotic,B-A21; [30],32%
same,planktonic growth relative to the growth in the absence of both extract and antibiotic,B-A21; [31],−2%
same,planktonic growth relative to the growth in the absence of both extract and antibiotic,B-A21; [32],−3%
same,planktonic growth relative to the growth in the absence of both extract and antibiotic,B-A21; [33],0%
